The source of these data is PubChem BioAssay AID1963447 (Molecular Pharmacology Branch, DTP, NCI, 2024).

SMILES strings stand for the structures. Several values for one entry are separate records, joined by “and”; a condition that tells them apart may be missing. Equal entries are not always repeated.

The test concerns 885512-296-R-J2-PDC complex spheroid growth, % test/control. The experiment in a line: Anticancer human tumor 885512-296-R-J2-PDC patient-derived breast carcinoma cell line growth inhibition [Asc]. As to conditions: for viability, T/C: stronger effect = lower value. A digest of the protocol:
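Tumor cells were grown as complex spheroids with human endothelial cells (HUVEC) and human mesenchymal stem cells as stroma. Agents were tested alone and in combination, in half-log steps down from the clinical Cmax, or from 10 microM where Cmax was unknown.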

[1] abbreviates: curve of first compound, second compound 0.03 µM.
Setting [2] is: curve of first compound, second compound 0.0949 µM.
Setting [3] is: curve of first compound, second compound 0.3 µM.
Where [4] appears, read: curve of first compound, second compound 0.949 µM.
Where [5] appears, read: curve of first compound, second compound 3 µM.
Where [6] appears, read: second compound 0.03 µM, first compound 0.0316 µM.
[7] abbreviates: second compound 0.03 µM, first compound 0.1 µM.
Where [8] appears, read: second compound 0.03 µM, first compound 0.316 µM.
Setting [9] is: second compound 0.03 µM, first compound 1 µM.
The mark [10] stands for this setting: second compound 0.0949 µM, first compound 0.0316 µM.
The mark [11] stands for this setting: second compound 0.0949 µM, first compound 0.1 µM.
The mark [12] stands for this setting: second compound 0.0949 µM, first compound 0.316 µM.
The mark [13] stands for this setting: second compound 0.0949 µM, first compound 1 µM.
[14] abbreviates: second compound 0.3 µM, first compound 0.0316 µM.
The mark [15] stands for this setting: second compound 0.3 µM, first compound 0.1 µM.
Where [16] appears, read: second compound 0.3 µM, first compound 0.316 µM.
Where [17] appears, read: second compound 0.3 µM, first compound 1 µM.
Setting [18] is: second compound 0.949 µM, first compound 0.0316 µM.
[19] abbreviates: second compound 0.949 µM, first compound 0.1 µM.
[20] abbreviates: second compound 0.949 µM, first compound 0.316 µM.
Where [21] appears, read: second compound 0.949 µM, first compound 1 µM.
The mark [22] stands for this setting: second compound 3 µM, first compound 0.0316 µM.
Setting [23] is: second compound 3 µM, first compound 0.1 µM.
Where [24] appears, read: second compound 3 µM, first compound 0.316 µM.
[25] abbreviates: second compound 3 µM, first compound 1 µM.
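Note: spheroids exposed to compounds for seven days.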
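Throughout, for viability, T/C: 100% = DMSO vehicle control wells.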

One may read the IC50 as the concentration that inhibits the measured activity by half. One may read the viability, T/C as the result in the treated group divided by that in the control group, in per cent. For `O=C(c1ccc(F)c(F)c1Nc1ccc(I)cc1F)N1CC(O)([C@@H]2CCCCN2)C1` + CCN1C(C(=O)NC23CCC(C(=O)O)(CC2)CC3)C(c2cccc(Cl)c2F)C2(C(=O)Nc3cc(Cl)ccc32)C12CCCCC2, the IC50 was 0.127 µM under setting [1]; 0.148 µM under setting [2]; 0.132 µM under setting [3]; 0.0553 µM under setting [4]; less than 0.00316 µM under setting [5]. Besides, the viability, T/C reads like this: (second compound 0.03 µM, first compound 0.00316 µM) 100%; (second compound 0.03 µM, first compound 0.01 µM) 74.2%; under setting [6], 63.5%; under setting [7], 62%; under setting [8], 39.4%; under setting [9], 18.7%. Also, the viability, T/C by setting is: (second compound 0.0949 µM, first compound 0.00316 µM) 89.4%; (second compound 0.0949 µM, first compound 0.01 µM) 89.3%; under setting [10], 66.5%; under setting [11], 57.1%; under setting [12], 39.1%; under setting [13], 17.5%. The viability, T/C is 83.5% (second compound 0.3 µM, first compound 0.00316 µM); 80.6% (second compound 0.3 µM, first compound 0.01 µM); 65.7% under setting [14]; 55.2% under setting [15]; 36.8% under setting [16]; 18.1% under setting [17]. In addition, the viability, T/C is 67.7% (second compound 0.949 µM, first compound 0.00316 µM); 53.4% (second compound 0.949 µM, first compound 0.01 µM); 54% under setting [18]; 48.8% under setting [19]; 33.9% under setting [20]; 17.5% under setting [21]. The viability, T/C was 42.7% (second compound 3 µM, first compound 0.00316 µM); 35.9% (second compound 3 µM, first compound 0.01 µM); 31.4% under setting [22]; 35.4% under setting [23]; 22.2% under setting [24]; 14.7% under setting [25].

As to `NC(=O)C(=Cn1cnc(-c2cc(C(F)(F)F)cc(C(F)(F)F)c2)n1)c1cncnc1`, the viability, T/C runs as follows: (compound 0.000949 µM) 87.5% and 102% and 84.6%; (compound 0.003 µM) 85.7% and 110% and 93.3%; (compound 0.00949 µM) 101% and 108% and 96.6%; (compound 0.03 µM) 74.1% and 79.4% and 91.7%; (compound 0.0949 µM) 8.08% and 8.06% and 10.7%; (compound 0.3 µM) 3% and 0.88% and 1.21%. In addition, the IC50 (curve of compound) was 0.0457 µM and 0.0482 µM and 0.0542 µM.

For `CNC(C)C(=O)NC1CN(S(=O)(=O)c2cccc(S(=O)(=O)N3CCC4CCC(C(=O)NC(c5ccccc5)c5ccccc5)N4C(=O)C(NC(=O)C(C)NC)C3)c2)CCC2CCC(C(=O)NC(c3ccccc3)c3ccccc3)N2C1=O` (configuration not stated), the viability, T/C (compound 0.00316 µM) is 84.1% and 81%. In addition, the IC50 is more than 1 µM (compound alone, run of 10/03/2022) and more than 1 µM (curve of compound).

As to `CCN1CCN(Cc2ccc(Nc3ncc(F)c(-c4cc(F)c5nc(C)n(C(C)C)c5c4)n3)nc2)CC1`, the viability, T/C reads like this: (compound 0.00316 µM) 89.4% and 83.8% and 88.3%; (compound 0.01 µM) 107% and 91.6% and 85.9%; (compound 0.0316 µM) 92.8% and 77.8% and 104%; (compound 0.1 µM) 80.7% and 77.2% and 93%; (compound 0.316 µM) 79.6% and 71.2% and 79.3%; (compound 1 µM) 61.1% and 65% and 73.3%. Besides, under “curve of compound”, the IC50 was more than 1 µM.

Consider `C=C(F)C(=O)N1CCN(c2nc(OCC3CCCN3C)nc3c2CCN(c2cccc4cccc(Cl)c24)C3)CC1CC#N` (configuration not stated) + CNC(C)C(=O)NC1CN(S(=O)(=O)c2cccc(S(=O)(=O)N3CCC4CCC(C(=O)NC(c5ccccc5)c5ccccc5)N4C(=O)C(NC(=O)C(C)NC)C3)c2)CCC2CCC(C(=O)NC(c3ccccc3)c3ccccc3)N2C1=O, for which the concentration for half-maximal inhibition (IC50) runs as follows: (curve of first compound, second compound 0.01 µM) 2.66 µM; (curve of first compound, second compound 0.0316 µM) 2.29 µM; (curve of first compound, second compound 0.1 µM) 2.45 µM; (curve of first compound, second compound 0.316 µM) 2.24 µM; (curve of first compound, second compound 1 µM) 2.24 µM. Besides, the viability, T/C is 88.6% (second compound 0.01 µM, first compound 0.0316 µM); 91.8% (second compound 0.01 µM, first compound 0.1 µM); 95.7% (second compound 0.01 µM, first compound 0.316 µM); 84.8% (second compound 0.01 µM, first compound 1 µM); 43.8% (second compound 0.01 µM, first compound 3.16 µM); 0.11% (second compound 0.01 µM, first compound 10 µM). For the same compound, the viability, T/C (second compound 0.0316 µM, first compound 0.0316 µM) was 100%; the viability, T/C (second compound 0.0316 µM, first compound 0.1 µM) was 101%; the viability, T/C (second compound 0.0316 µM, first compound 0.316 µM) was 100%; the viability, T/C (second compound 0.0316 µM, first compound 1 µM) is 99.7%; the viability, T/C (second compound 0.0316 µM, first compound 3.16 µM) is 30.7%; the viability, T/C (second compound 0.0316 µM, first compound 10 µM) is 0.3%. Also, the viability, T/C runs as follows: (second compound 0.1 µM, first compound 0.0316 µM) 105%; (second compound 0.1 µM, first compound 0.1 µM) 102%; (second compound 0.1 µM, first compound 0.316 µM) 102%; (second compound 0.1 µM, first compound 1 µM) 104%; (second compound 0.1 µM, first compound 3.16 µM) 34.9%; (second compound 0.1 µM, first compound 10 µM) 0.09%. The viability, T/C was 110% (second compound 0.316 µM, first compound 0.0316 µM); 103% (second compound 0.316 µM, first compound 0.1 µM); 113% (second compound 0.316 µM, first compound 0.316 µM); 103% (second compound 0.316 µM, first compound 1 µM); 27.5% (second compound 0.316 µM, first compound 3.16 µM); 0.09% (second compound 0.316 µM, first compound 10 µM). The viability, T/C is, setting by setting: (second compound 1 µM, first compound 0.0316 µM) 114%; (second compound 1 µM, first compound 0.1 µM) 113%; (second compound 1 µM, first compound 0.316 µM) 115%; (second compound 1 µM, first compound 1 µM) 95.3%; (second compound 1 µM, first compound 3.16 µM) 30.5%; (second compound 1 µM, first compound 10 µM) 0.38%.

With `O=C(c1cc(Cc2n[nH]c(=O)c3ccccc23)ccc1F)N1CCN(C(=O)C2CC2)CC1` + CCN1C(C(=O)NC23CCC(C(=O)O)(CC2)CC3)C(c2cccc(Cl)c2F)C2(C(=O)Nc3cc(Cl)ccc32)C12CCCCC2, the IC50 runs as follows: under setting [1], 4.71 µM; under setting [2], 5.65 µM; under setting [3], 5.14 µM; under setting [4], 5.09 µM; under setting [5], less than 0.0316 µM. The viability, T/C runs as follows: under setting [6], 80.5%; under setting [7], 118%; under setting [8], 116%; under setting [9], 92.7%; (second compound 0.03 µM, first compound 3.16 µM) 67.7%; (second compound 0.03 µM, first compound 10 µM) 17.6%. Also, the viability, T/C by setting is: under setting [10], 98.8%; under setting [11], 116%; under setting [12], 107%; under setting [13], 90.2%; (second compound 0.0949 µM, first compound 3.16 µM) 79.5%; (second compound 0.0949 µM, first compound 10 µM) 22.9%. In addition, the viability, T/C is 93.3% under setting [14]; 97.8% under setting [15]; 89.9% under setting [16]; 98.1% under setting [17]; 69.5% (second compound 0.3 µM, first compound 3.16 µM); 23.6% (second compound 0.3 µM, first compound 10 µM). Besides, the viability, T/C under setting [18] was 72%; the viability, T/C under setting [19] is 81.1%; the viability, T/C under setting [20] is 76%; the viability, T/C under setting [21] is 77.1%; the viability, T/C (second compound 0.949 µM, first compound 3.16 µM) is 66.8%; the viability, T/C (second compound 0.949 µM, first compound 10 µM) is 25.3%. The viability, T/C is, setting by setting: under setting [22], 45.1%; under setting [23], 54.7%; under setting [24], 42.6%; under setting [25], 47.8%; (second compound 3 µM, first compound 3.16 µM) 47.2%; (second compound 3 µM, first compound 10 µM) 23.5%.
